Among the data in patent EP4667464A1 (Cyrus Therapeutics Inc., priority 2023, dated 2024) are IC50 values, retold here.

Read-outs that look alike come from different tables or passages of the source.

For assay [1], the system named is lung cancer cell line NCI-H358 having the KRAS G12C variant. Briefly: Cancer cell growth inhibition, 3D spheroids (CellTiter-Glo 3D). It counts as cell-based. The note with it: Homo sapiens, NCI-H358, 120 h, read-out: H358 cell viability. How it is done:
Thereafter, the plate with the cells cultured was adapted to room temperature for 10 minutes, and then 50 µL of CellTiter-Glo® 3D Cell Viability Assay (PROMEGA, G9683) solution was dispensed, and reacted on a horizontal stirrer at a speed of 300 RPM for 30 minutes to induce the cell lysis. […] Thereafter, based on the measured values, the degree of cell growth in the well treated with each compound was calculated when the final cell density value of the well not treated with the test substance was set to 100%.
On the technique in general: ATP-based viability assays read luminescence as a measure of living cells.

A further assay concerns the target T1, SOS1 (Homo sapiens, UniProt Q07889).
T1 construct: HIS-SOS1cat (160 nM; Cytoskeleton, US); His (N); purchased Cytoskeleton
T1 sequence (Q07889 564-1049 limits assumed): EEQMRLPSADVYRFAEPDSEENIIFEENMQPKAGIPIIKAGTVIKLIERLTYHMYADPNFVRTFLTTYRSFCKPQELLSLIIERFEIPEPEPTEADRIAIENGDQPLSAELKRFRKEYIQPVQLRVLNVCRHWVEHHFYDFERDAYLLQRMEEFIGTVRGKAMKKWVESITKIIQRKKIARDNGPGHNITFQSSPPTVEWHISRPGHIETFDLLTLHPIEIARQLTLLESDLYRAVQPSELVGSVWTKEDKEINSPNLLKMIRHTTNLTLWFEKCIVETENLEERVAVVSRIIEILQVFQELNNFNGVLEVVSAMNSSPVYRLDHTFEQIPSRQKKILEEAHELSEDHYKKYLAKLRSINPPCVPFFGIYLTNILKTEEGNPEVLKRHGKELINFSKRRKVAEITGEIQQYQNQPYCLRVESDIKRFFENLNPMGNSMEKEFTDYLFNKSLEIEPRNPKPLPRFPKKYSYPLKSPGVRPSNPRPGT
Kind of assay: SOS-catalyzed nucleotide exchange assay (HTRF, SOS1-mediated GTP loading of KRAS G12D). The class given is biochemical. (TR-FRET usually uses a lanthanide donor and a delayed reading to cut background.)

The target of the next assay is T2, KRAS G12C::SOS1 (Homo sapiens, UniProt Q07889).
T2 construct: purchased CISBIO 64KRASG12PEH
T2 sequence (Q07889 1-1333): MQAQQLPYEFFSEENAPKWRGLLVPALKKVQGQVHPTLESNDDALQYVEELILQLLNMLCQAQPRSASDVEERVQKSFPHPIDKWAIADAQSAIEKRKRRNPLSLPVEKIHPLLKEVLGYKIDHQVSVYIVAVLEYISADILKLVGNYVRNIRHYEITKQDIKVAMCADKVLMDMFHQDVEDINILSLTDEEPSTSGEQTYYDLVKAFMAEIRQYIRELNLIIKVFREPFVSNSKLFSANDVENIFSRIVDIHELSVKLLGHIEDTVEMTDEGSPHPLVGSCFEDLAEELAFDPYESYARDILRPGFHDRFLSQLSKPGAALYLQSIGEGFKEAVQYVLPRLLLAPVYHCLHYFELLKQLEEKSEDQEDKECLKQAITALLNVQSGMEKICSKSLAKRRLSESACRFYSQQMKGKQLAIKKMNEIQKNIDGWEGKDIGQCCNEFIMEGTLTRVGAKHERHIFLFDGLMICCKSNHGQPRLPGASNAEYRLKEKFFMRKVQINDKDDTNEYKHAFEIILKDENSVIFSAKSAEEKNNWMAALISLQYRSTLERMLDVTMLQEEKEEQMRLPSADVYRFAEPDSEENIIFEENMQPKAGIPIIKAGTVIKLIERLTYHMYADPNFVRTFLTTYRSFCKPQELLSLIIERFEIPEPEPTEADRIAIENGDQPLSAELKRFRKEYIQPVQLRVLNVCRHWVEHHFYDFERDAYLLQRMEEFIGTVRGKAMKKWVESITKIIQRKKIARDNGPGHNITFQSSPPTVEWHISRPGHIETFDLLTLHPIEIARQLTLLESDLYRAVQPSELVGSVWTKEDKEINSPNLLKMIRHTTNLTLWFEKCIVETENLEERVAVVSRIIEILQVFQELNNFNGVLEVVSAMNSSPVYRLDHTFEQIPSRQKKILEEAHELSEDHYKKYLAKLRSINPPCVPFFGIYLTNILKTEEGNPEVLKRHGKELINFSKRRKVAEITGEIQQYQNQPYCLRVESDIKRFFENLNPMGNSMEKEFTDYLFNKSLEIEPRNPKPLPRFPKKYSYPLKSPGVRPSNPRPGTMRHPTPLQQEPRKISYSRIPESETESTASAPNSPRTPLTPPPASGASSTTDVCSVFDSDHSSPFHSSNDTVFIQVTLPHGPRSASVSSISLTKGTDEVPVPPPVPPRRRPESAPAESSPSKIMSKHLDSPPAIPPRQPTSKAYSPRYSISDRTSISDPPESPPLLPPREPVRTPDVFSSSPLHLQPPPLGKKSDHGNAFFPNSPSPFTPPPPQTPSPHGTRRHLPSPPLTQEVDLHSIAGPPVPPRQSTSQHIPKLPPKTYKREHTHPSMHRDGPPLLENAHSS
Briefly: KRAS G12C::SOS1 protein-protein interaction (PPI) inhibition assay (HTRF). It counts as binding. A digest of the protocol:
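Compounds, at eight 3-fold dilutions from 3 µM, were mixed with GTP-loaded Tag1-KRAS G12C, Tag2-SOS1 and a terbium-cryptate donor plus XL665 acceptor antibody pair. After 2 h at room temperature, time-resolved FRET reported the KRAS–SOS1 interaction.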

Setting [2] is: 3D spheroids, 0.002-10 µM, 5 days.
The mark [3] stands for this setting: GST-KRAS G12D, HIS-SOS1cat, compound 128 pM to 10 µM, read-out: SOS-catalyzed nucleotide exchange assay.
The mark [4] stands for this setting: 8 concentrations from 3 µM, three replicates, read-out: KRAS G12C::SOS1 PPI.

With `C[C@@H](NC(=O)c1ccc(=O)n(-c2cncc(-c3cnnn3C)c2)n1)c1cccc(C(F)(F)CO)c1F` [Example 1, N-[(1R)-1-[3-(1,1-difluoro-2-hydroxy-ethyl)-2-fluoro-phenyl]ethyl]-1-[5-(3-methyltriazol-4-yl)-3-pyridyl]-6-oxo-pyridazine-3-carboxamide], the results for the IC50 (in assay [1]; at SOS1; against KRAS G12C::SOS1) were less than 1000 nM, less than 50 nM and less than 50 nM, respectively.

Consider `C[C@@H](NC(=O)c1ccc(=O)n(-c2cncc(-c3cnnn3C)c2)n1)c1cccc(C(F)F)c1F` [Example 1-1, N-[(1R)-1-[3-(difluoromethyl)-2-fluoro-phenyl]ethyl]-1-[5-(3-methyltriazol-4-yl)-3-pyridyl]-6-oxo-pyridazine-3-carboxamide], for which the IC50 in assay [1] (setting [2]) was less than 1000 nM; on SOS1 (setting [3]), 50 to 150 nM; on KRAS G12C::SOS1 (setting [4]), less than 50 nM.

Regarding `[2H]C([2H])([2H])n1nncc1-c1cncc(-n2nc(C(=O)N[C@H](C)c3cc(N)cc(C(F)F)c3)ccc2=O)c1` [Example 1-4, N-[(1R)-1-[3-amino-5-(difluoromethyl)phenyl]ethyl]-6-oxo-1-[5-[3-(trideuteriomethyl)triazol-4-yl]-3-pyridyl]pyridazine-3-carboxamide], the IC50 in assay [1] (setting [2]) was more than 3000 nM; on SOS1 (setting [3]) it was 50 to 150 nM; on KRAS G12C::SOS1 (setting [4]), less than 50 nM.

`[2H]C([2H])([2H])n1nncc1-c1cncc(-n2nc(C(=O)N[C@H](C)c3cccc(C(F)(F)F)c3F)ccc2=O)c1` [Example 1-5, N-[(1R)-1-[2-fluoro-3-(trifluoromethyl)phenyl]ethyl]-6-oxo-1-[5-[3-(trideuteriomethyl)triazol-4-yl]-3-pyridyl]pyridazine-3-carboxamide]: the IC50 in assay [1] (setting [2]) was less than 1000 nM.

Turning to `[2H]C([2H])([2H])n1nncc1-c1cncc(-n2nc(C(=O)N[C@H](C)c3cccc(C(F)F)c3F)ccc2=O)c1` [Example 1-6, N-[(1R)-1-[3-(difluoromethyl)-2-fluoro-phenyl]ethyl]-6-oxo-1-[5-[3-(trideuteriomethyl)triazol-4-yl]-3-pyridyl]pyridazine-3-carboxamide], the values for the IC50 (in assay [1] (setting [2]); on SOS1 (setting [3]); on KRAS G12C::SOS1 (setting [4])) were more than 3000 nM, 50 to 150 nM and less than 50 nM, respectively.

Take `[2H]C([2H])([2H])n1nncc1-c1cncc(-n2nc(C(=O)N[C@H](C)c3cccc(C(F)(F)CO)c3F)ccc2=O)c1` [Example 1-7, N-[(1R)-1-[3-(1,1-difluoro-2-hydroxy-ethyl)-2-fluoro-phenyl]ethyl]-6-oxo-1-[5-[3-(trideuteriomethyl)triazol-4-yl]-3-pyridyl]pyridazine-3-carboxamide]: the IC50 was less than 1000 nM in assay [1] (setting [2]), less than 50 nM at SOS1 (setting [3]) and less than 50 nM at KRAS G12C::SOS1 (setting [4]).

In the case of `C[C@@H](NC(=O)c1ccc(=O)n(-c2cncc(-c3cnnn3C)c2)n1)c1cc(N)cc(C(F)(F)F)c1` [Example 1-9, N-[(1R)-1-[3-amino-5-(trifluoromethyl)phenyl]ethyl]-1-[5-(3-methyltriazol-4-yl)-3-pyridyl]-6-oxo-pyridazine-3-carboxamide], the values for the IC50 (in assay [1] (setting [2]); on SOS1 (setting [3]); at KRAS G12C::SOS1 (setting [4])) were less than 1000 nM, less than 50 nM and less than 50 nM, respectively.

Regarding `C[C@@H](NC(=O)c1ccc(=O)n(-c2cncc(-c3cnnn3C)c2)n1)c1cccc(C2(C)CC2)c1F` [Example 1-33, N-[(1R)-1-[2-fluoro-3-(1-methylcyclopropyl)phenyl]ethyl]-1-[5-(3-methyltriazol-4-yl)-3-pyridyl]-6-oxo-pyridazine-3-carboxamide], the IC50 in assay [1] (setting [2]) was more than 3000 nM; at KRAS G12C::SOS1 (setting [4]) it was more than 150 nM.

For `CC(=O)N1CC(n2nncc2-c2cncc(-n3nc(C(=O)N[C@H](C)c4cccc(C(F)(F)F)c4F)ccc3=O)c2)C1` [Example 20-10, (R)-1-(5-(1-(1-acetylazetidin-3-yl)-1H-1,2,3-triazol-5-yl)pyridin-3-yl)-N-(1-(2-fluoro-3-(trifluoromethyl)phenyl)ethyl)-6-oxo-1,6-dihydropyridazine-3-carboxamide], the IC50 on SOS1 (setting [3]) and on KRAS G12C::SOS1 (setting [4]) was less than 50 nM in each case.

On to `COC(=O)N1CC(n2nncc2-c2cncc(-n3nc(C(=O)N[C@H](C)c4cccc(C(F)(F)F)c4F)ccc3=O)c2)C1` [Example 20-11, methyl (R)-3-(5-(5-(3-((1-(2-fluoro-3-(trifluoromethyl)phenyl)ethyl)carbamoyl)-6-oxopyridazin-1(6H)-yl)pyridin-3-yl)-1H-1,2,3-triazol-1-yl)azetidine-1-carboxylate], for which the IC50 on SOS1 (setting [3]) and on KRAS G12C::SOS1 (setting [4]) was less than 50 nM throughout.

With `C[C@@H](NC(=O)c1ccc(=O)n(-c2cncc(-c3cnnn3C3CN(S(C)(=O)=O)C3)c2)n1)c1cccc(C(F)(F)F)c1F` [Example 20-12, (R)-N-(1-(2-fluoro-3-(trifluoromethyl)phenyl)ethyl)-1-(5-(1-(1-(methylsulfonyl)azetidin-3-yl)-1H-1,2,3-triazol-5-yl)pyridin-3-yl)-6-oxo-1,6-dihydropyridazine-3-carboxamide], the IC50 at SOS1 (setting [3]) and on KRAS G12C::SOS1 (setting [4]) was less than 50 nM throughout.

Turning to `[2H]C([2H])([2H])[C@@]([2H])(NC(=O)c1ccc(=O)n(-c2cncc(-c3cnnn3C)c2)n1)c1cccc(C(F)(F)F)c1F` [Example 22, (R)-N-(1-(2-fluoro-3-(trifluoromethyl)phenyl)ethyl-1,2,2,2-tetradeuterio)-1-(5-(1-methyl-1H-1,2,3-triazol-5-yl)pyridin-3-yl)-6-oxo-1,6-dihydropyridazine-3-carboxamide], the IC50 in assay [1] (setting [2]) was less than 1000 nM.

Take `C[C@@H](NC(=O)c1ccc(=O)n(-c2cncc(-c3cnnn3[C@H]3CC3(F)F)c2)n1)c1cccc(C(F)(F)F)c1F` [Example 23, 1-[5-[3-[(1S)-2,2-difluorocyclopropyl]triazol-4-yl]-3-pyridyl]-N-[(1R)-1-[2-fluoro-3-(trifluoromethyl)phenyl]ethyl]-6-oxo-pyridazine-3-carboxamide]: the IC50 on SOS1 and on KRAS G12C::SOS1 was 50 to 150 nM in each case.

As to `C[C@@H](NC(=O)c1ccc(=O)n(-c2cncc(-c3cnnn3[C@@H]3CC3(F)F)c2)n1)c1cccc(C(F)(F)F)c1F` [Example 24, 1-[5-[3-[(1R)-2,2-difluorocyclopropyl]triazol-4-yl]-3-pyridyl]-N-[(1R)-1-[2-fluoro-3-(trifluoromethyl)phenyl]ethyl]-6-oxo-pyridazine-3-carboxamide], the results for the IC50 against SOS1 and against KRAS G12C::SOS1 were 50 to 150 nM and more than 150 nM, respectively.
